Among the test systems are 786-0 renal; A498 renal; A549 NSCLC; DLD-1 colon; HCT-116 colon; HOP-18 NSCLC; HOP-62 NSCLC; IGROV1 ovarian; KM20L2 colon; LXFL 529 NSCLC; M19-MEL melanoma; MALME-3M melanoma; NCI-H460 lung; OVCAR-5 ovarian; SK-MEL-28 melanoma; SK-OV-3 ovarian; UACC-257 melanoma.
Common to all, as to assay: DTP human tumour cell line panel, 48 h

SMILES strings stand for the structures.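 1) Cells in 96-well plates. 2) Compound, 48 h, 5 concentrations. 3) Linear interpolation between surrounding doses. 4) Unreached endpoint = highest concentration. At the TGI there is no net growth.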 A value given as a limit tells only on which side of the number the result lay.

With `CC(=S)NNC(=O)c1ccncc1`, the TGI in the assay with 786-0 renal, in the assay with A498 renal, in the assay on A549 NSCLC, in the assay on DLD-1 colon, in the assay with HCT-116 colon and in the assay on HOP-18 NSCLC was more than 100 µM throughout. The concentration for total growth inhibition (TGI) in the assay with HOP-62 NSCLC, in the assay with IGROV1 ovarian, with KM20L2 colon, in the assay on LXFL 529 NSCLC, with M19-MEL melanoma and in the assay with MALME-3M melanoma was more than 100 µM in each case. In addition, the total growth inhibition concentration (TGI) in the assay on NCI-H460 lung, with OVCAR-5 ovarian, with SK-MEL-28 melanoma, in the assay with SK-OV-3 ovarian and with UACC-257 melanoma was more than 100 µM in each case.
On to `CNS(=O)(=O)NN(C)S(=O)(=O)c1ccc(Br)cc1`, for which the TGI with 786-0 renal, with A498 renal, in the assay on A549 NSCLC, in the assay on HCT-116 colon, with HOP-62 NSCLC and in the assay with IGROV1 ovarian was more than 100 µM each time. Besides, the TGI in the assay on KM20L2 colon, with LXFL 529 NSCLC, with M19-MEL melanoma, in the assay with MALME-3M melanoma and in the assay with UACC-257 melanoma was more than 100 µM in each case.
Consider `Cc1ccc(S(=O)(=O)OCC23CCC(C4CC42)C2CC23)cc1` (configuration not stated), for which the TGI with 786-0 renal, in the assay with A498 renal, with A549 NSCLC, in the assay on DLD-1 colon, in the assay with HCT-116 colon and with HOP-18 NSCLC was more than 100 µM throughout. For the same compound, the TGI in the assay with HOP-62 NSCLC, with IGROV1 ovarian, in the assay on KM20L2 colon, in the assay on LXFL 529 NSCLC, in the assay on M19-MEL melanoma and with MALME-3M melanoma was more than 100 µM throughout. In addition, the TGI in the assay on NCI-H460 lung was more than 100 µM; with OVCAR-5 ovarian, more than 100 µM; with SK-MEL-28 melanoma, more than 100 µM; in the assay on SK-OV-3 ovarian, more than 100 µM; in the assay on UACC-257 melanoma, 89.1 µM.
On to `CN(C)CCCn1c2c3ccccc3ccc2c2oc(=O)c3ccccc3c21`, for which the concentration for total growth inhibition (TGI) came to 5.54 µM in the assay with 786-0 renal; 28.6 µM in the assay with A498 renal; 11 µM with A549 NSCLC; 2.99 µM in the assay on DLD-1 colon; 5.05 µM in the assay with HCT-116 colon; 40.2 µM in the assay on HOP-18 NSCLC. The TGI is 15.4 µM in the assay with HOP-62 NSCLC; 23.5 µM in the assay with IGROV1 ovarian; 2.78 µM in the assay on KM20L2 colon; 10 µM in the assay with LXFL 529 NSCLC; 8.86 µM with M19-MEL melanoma; 29.8 µM in the assay with MALME-3M melanoma. For the same compound, the TGI in the assay with NCI-H460 lung was 6.64 µM; in the assay on OVCAR-5 ovarian, 55.5 µM; in the assay with SK-MEL-28 melanoma it was 12.3 µM; with SK-OV-3 ovarian it was more than 61.8 µM; with UACC-257 melanoma, 19.1 µM.
Regarding `O=C(c1ccc(Cl)cc1)N(C(=S)N1CCN(c2ccccc2)CC1)c1ccccc1`, the concentration for total growth inhibition (TGI) in the assay on 786-0 renal, in the assay on A549 NSCLC, with DLD-1 colon, in the assay on HCT-116 colon, in the assay with HOP-18 NSCLC and with HOP-62 NSCLC was more than 100 µM each time. Moreover, the concentration for total growth inhibition (TGI) in the assay with IGROV1 ovarian, with KM20L2 colon, in the assay on LXFL 529 NSCLC, in the assay on M19-MEL melanoma, in the assay on MALME-3M melanoma and with NCI-H460 lung was more than 100 µM throughout. Moreover, the TGI with OVCAR-5 ovarian, in the assay with SK-MEL-28 melanoma, in the assay with SK-OV-3 ovarian and in the assay on UACC-257 melanoma was more than 100 µM each time.
As to `O=C1NC2(O)c3ccccc3C(=O)C2(O)N1c1ccccc1` (configuration not stated), the TGI in the assay on 786-0 renal, in the assay on A549 NSCLC, in the assay with DLD-1 colon, with HCT-116 colon, in the assay on HOP-18 NSCLC and in the assay with IGROV1 ovarian was more than 100 µM each time. Further, the TGI in the assay with KM20L2 colon, in the assay with LXFL 529 NSCLC, in the assay on M19-MEL melanoma, in the assay with MALME-3M melanoma, in the assay with NCI-H460 lung and with OVCAR-5 ovarian was more than 100 µM each time. The total growth inhibition concentration (TGI) in the assay with SK-MEL-28 melanoma, with SK-OV-3 ovarian and in the assay on UACC-257 melanoma was more than 100 µM each time.
Take `CC1(C)N=C(N)N=C(N)N1c1ccc(CCCCc2ccc(Cl)cc2Cl)cc1`: the TGI in the assay on 786-0 renal is 15.3 µM; with A498 renal it was 28.8 µM; with A549 NSCLC it was 14.7 µM; with HCT-116 colon, 15.1 µM; in the assay on HOP-62 NSCLC, 10.6 µM; with IGROV1 ovarian, 10 µM. For the same compound, the TGI is 16.8 µM in the assay on MALME-3M melanoma; 2.48 µM in the assay with NCI-H460 lung; 20.9 µM with OVCAR-5 ovarian; 19.2 µM in the assay with SK-MEL-28 melanoma; 24.7 µM in the assay with SK-OV-3 ovarian; 8.65 µM with UACC-257 melanoma.
Consider `Cc1ccc(NNc2cc(=O)[nH]c(=O)[nH]2)cc1Cl`, for which the total growth inhibition concentration (TGI) was 28 µM with 786-0 renal; more than 100 µM in the assay with A498 renal; more than 100 µM in the assay with A549 NSCLC; 28.1 µM with HCT-116 colon; more than 100 µM in the assay with HOP-62 NSCLC; 27.6 µM with IGROV1 ovarian. Also, the concentration for total growth inhibition (TGI) in the assay with MALME-3M melanoma was 31.9 µM; in the assay on NCI-H460 lung it was more than 100 µM; in the assay with OVCAR-5 ovarian it was more than 100 µM; in the assay with SK-MEL-28 melanoma, 31.7 µM; in the assay with SK-OV-3 ovarian it was more than 100 µM; with UACC-257 melanoma it was 32 µM.

By TGI is commonly meant the concentration at which net growth stops. Read a high TGI as lower sensitivity of the cells.

Values taken from PubChem BioAssay (NCI).
